Results from article PMC3087488 (Journal of Oncology, 2011).
Marks after values point to notes of the source that are not given here.

Experiment: adverse events in patients (CTCAE version 3.0)
Format: in vivo, human
Details: for Any motesanib-related AE, Grade 3 / Any motesanib-related AE, Grade 4 / Any motesanib-related AE, Grade 5 / Motesanib-related AE: Anorexia / Motesanib-related AE: Constipation / Motesanib-related AE: Deep vein thrombosis / Motesanib-related AE: Dehydration / Motesanib-related AE: Dermatitis acneiform / Motesanib-related AE: Diarrhea / Motesanib-related AE: Erythema / Motesanib-related AE: Fatigue / Motesanib-related AE: Hypertension / Motesanib-related AE: Nausea / Motesanib-related AE: Pulmonary embolism / Motesanib-related AE: Rash / Motesanib-related AE: Vomiting / Motesanib-related Arterial thromboembolic events (all grades) / Motesanib-related Arterial thrombosis, Grade 3 / Motesanib-related Arterial thrombosis, Grade 4 / Motesanib-related Cerebrovascular accident, Grade 2 / Motesanib-related Deep vein thrombosis, Grade 2 / Motesanib-related Deep vein thrombosis, Grade 3 / Motesanib-related Gallbladder disorder, Grade 1 / Motesanib-related Hemorrhagic events, Grade 1 / Motesanib-related Jugular vein thrombosis, Grade 2 / Motesanib-related Neutropenia, Grade 3 / Motesanib-related Pulmonary embolism, Grade 4 / Motesanib-related Pulmonary embolism, Grade 5 / Motesanib-related Venous thromboembolic events (all grades) / Patients with any motesanib-related AE: gemcitabine/cisplatin
Description: Adverse events were recorded throughout the study and graded (including DLTs) according to the Common Terminology Criteria for Adverse Events, version 3.0. Samples for assessment of hematology, blood chemistry, urinalysis, and thyroid function were collected on day 1 of each cycle.

[1] = 33 patients who received motesanib, all cohorts
[2] = listed after the 125-mg QD cohort
[3] = motesanib 50 mg QD (n = 8) + panitumumab
[4] = motesanib 75 mg BID (n = 2) + panitumumab
[5] = motesanib 75 mg QD (n = 6) + panitumumab
[6] = motesanib 100 mg QD (n = 6) + panitumumab
[7] = motesanib 125 mg QD (n = 11) + panitumumab

CC1(C)CNc2cc(NC(=O)c3cccnc3NCc3ccncc3)ccc21 [motesanib]
10%: patients with deep vein thrombosis (grade 2 or 3) (all cohorts, four patients)
10 patients: motesanib-related diarrhea [1]
5 (83) n (%): Motesanib-related AE: Nausea [5]
4 (67) n (%): Motesanib-related AE: Hypertension [5] | Patients with any motesanib-related AE [6]
2 (33) n (%): Any motesanib-related AE, Grade 3 [5] | Any motesanib-related AE, Grade 4 [5] | Motesanib-related AE: Constipation [5] | Motesanib-related AE: Dermatitis acneiform [5] | Motesanib-related AE: Erythema [5] | Motesanib-related AE: Fatigue [5] | Motesanib-related AE: Pulmonary embolism [5] | Motesanib-related Pulmonary embolism, Grade 4 [5] | Any motesanib-related AE, Grade 4 [6] | Motesanib-related AE: Anorexia [6] | Motesanib-related AE: Fatigue [6] | Motesanib-related AE: Hypertension [6] | Motesanib-related AE: Nausea [6] | Motesanib-related AE: Pulmonary embolism [6] | Motesanib-related Venous thromboembolic events (all grades) [6]
one: grade 1 jaundice (125 mg QD cohort)
1 (17) n (%): Motesanib-related AE: Dehydration [5] | Motesanib-related AE: Diarrhea [5] | Motesanib-related AE: Rash [5] | Motesanib-related Gallbladder disorder, Grade 1 [5] | Motesanib-related Jugular vein thrombosis, Grade 2 [5] | Any motesanib-related AE, Grade 3 [6] | Motesanib-related AE: Deep vein thrombosis [6] | Motesanib-related AE: Erythema [6] | Motesanib-related AE: Vomiting [6] | Motesanib-related Hemorrhagic events, Grade 1 [6]
2%: patients with grade 2 jugular vein thrombosis (all cohorts, one patient)
1 (17)^b n (%): Motesanib-related Deep vein thrombosis, Grade 3 [6]
6 (55) n (%): Any motesanib-related AE, Grade 3 [7] | Motesanib-related AE: Fatigue [7]
3 (50) n (%): Motesanib-related AE: Vomiting [5] | Motesanib-related Venous thromboembolic events (all grades) [5]
2 (100) n (%): Motesanib-related AE: Rash [4] | Patients with any motesanib-related AE [4]
2 (18) n (%): Motesanib-related AE: Constipation [7] | Motesanib-related AE: Deep vein thrombosis [7] | Motesanib-related AE: Dermatitis acneiform [7] | Motesanib-related AE: Rash [7] | Motesanib-related AE: Vomiting [7]
did not occur: hypothyroidism (all cohorts) | cholecystitis (any tested dose level)
6 (100) n (%): Patients with any motesanib-related AE [5]
1 (13) n (%): Any motesanib-related AE, Grade 5 [3] | Motesanib-related AE: Deep vein thrombosis [3] | Motesanib-related AE: Dermatitis acneiform [3] | Motesanib-related AE: Diarrhea [3] | Motesanib-related AE: Erythema [3] | Motesanib-related AE: Pulmonary embolism [3] | Motesanib-related Arterial thromboembolic events (all grades) [3] | Motesanib-related Cerebrovascular accident, Grade 2 [3] | Motesanib-related Deep vein thrombosis, Grade 2 [3] | Motesanib-related Hemorrhagic events, Grade 1 [3] | Motesanib-related Neutropenia, Grade 3 [3] | Motesanib-related Pulmonary embolism, Grade 5 [3]
14 patients: motesanib-related fatigue [1]
0 (0) n (%): Any motesanib-related AE, Grade 4 [3] | Motesanib-related AE: Constipation [3] | Motesanib-related AE: Dehydration [3] | Motesanib-related AE: Rash [3] | Motesanib-related Arterial thrombosis, Grade 3 [3] | Motesanib-related Arterial thrombosis, Grade 4 [3] | Motesanib-related Deep vein thrombosis, Grade 3 [3] | Motesanib-related Gallbladder disorder, Grade 1 [3] | Motesanib-related Jugular vein thrombosis, Grade 2 [3] | Motesanib-related Pulmonary embolism, Grade 4 [3] | Any motesanib-related AE, Grade 5 [4] | Motesanib-related AE: Anorexia [4] | Motesanib-related AE: Constipation [4] | Motesanib-related AE: Deep vein thrombosis [4] | Motesanib-related AE: Dehydration [4] | Motesanib-related AE: Dermatitis acneiform [4] | Motesanib-related AE: Erythema [4] | Motesanib-related AE: Fatigue [4] | Motesanib-related AE: Nausea [4] | Motesanib-related AE: Pulmonary embolism [4] | Motesanib-related AE: Vomiting [4] | Motesanib-related Arterial thrombosis, Grade 3 [4] | Motesanib-related Cerebrovascular accident, Grade 2 [4] | Motesanib-related Deep vein thrombosis, Grade 2 [4] | Motesanib-related Deep vein thrombosis, Grade 3 [4] | Motesanib-related Gallbladder disorder, Grade 1 [4] | Motesanib-related Hemorrhagic events, Grade 1 [4] | Motesanib-related Jugular vein thrombosis, Grade 2 [4] | Motesanib-related Neutropenia, Grade 3 [4] | Motesanib-related Pulmonary embolism, Grade 4 [4] | Motesanib-related Pulmonary embolism, Grade 5 [4] | Motesanib-related Venous thromboembolic events (all grades) [4] | Any motesanib-related AE, Grade 5 [5] | Motesanib-related AE: Anorexia [5] | Motesanib-related AE: Deep vein thrombosis [5] | Motesanib-related Arterial thromboembolic events (all grades) [5] | Motesanib-related Arterial thrombosis, Grade 3 [5] | Motesanib-related Arterial thrombosis, Grade 4 [5] | Motesanib-related Cerebrovascular accident, Grade 2 [5] | Motesanib-related Deep vein thrombosis, Grade 2 [5] | Motesanib-related Deep vein thrombosis, Grade 3 [5] | Motesanib-related Hemorrhagic events, Grade 1 [5] | Motesanib-related Neutropenia, Grade 3 [5] | Motesanib-related Pulmonary embolism, Grade 5 [5] | Any motesanib-related AE, Grade 5 [6] | Motesanib-related AE: Constipation [6] | Motesanib-related AE: Dehydration [6] | Motesanib-related AE: Dermatitis acneiform [6] | Motesanib-related AE: Diarrhea [6] | Motesanib-related AE: Rash [6] | Motesanib-related Arterial thromboembolic events (all grades) [6] | Motesanib-related Arterial thrombosis, Grade 3 [6] | Motesanib-related Arterial thrombosis, Grade 4 [6] | Motesanib-related Cerebrovascular accident, Grade 2 [6] | Motesanib-related Deep vein thrombosis, Grade 2 [6] | Motesanib-related Gallbladder disorder, Grade 1 [6] | Motesanib-related Jugular vein thrombosis, Grade 2 [6] | Motesanib-related Neutropenia, Grade 3 [6] | Motesanib-related Pulmonary embolism, Grade 5 [6] | Motesanib-related AE: Erythema [7] | Motesanib-related Arterial thrombosis, Grade 4 [7] | Motesanib-related Cerebrovascular accident, Grade 2 [7] | Motesanib-related Deep vein thrombosis, Grade 2 [7] | Motesanib-related Gallbladder disorder, Grade 1 [7] | Motesanib-related Jugular vein thrombosis, Grade 2 [7] | Motesanib-related Neutropenia, Grade 3 [7] | Motesanib-related Pulmonary embolism, Grade 5 [7]
One: grade 3 cholelithiasis (100 mg QD cohort)
15%: patients with motesanib-related serious adverse event with a worst grade of 4 (all cohorts, six patients)
20%: patients with grade 4 or 5 pulmonary embolism (all cohorts, eight patients (one grade 5))
1 (9) n (%): Motesanib-related Arterial thromboembolic events (all grades) [7] | Motesanib-related Arterial thrombosis, Grade 3 [7]
1 (9)^a n (%): Any motesanib-related AE, Grade 5 (motesanib 125 mg QD (n = 11) + panitumumab, sudden death)
24%: patients with motesanib-related venous thromboembolic events (all cohorts, 10 patients)
11 (100) n (%): Patients with any motesanib-related AE [7]
1 patients: serious motesanib-related arterial thrombosis [2] | serious motesanib-related asthenia [2] | serious motesanib-related atrial fibrillation [2] | serious motesanib-related confusional state [2] | serious motesanib-related headache [2] | serious motesanib-related hyponatremia [2] | serious motesanib-related sudden death [2]
3 (27) n (%): Any motesanib-related AE, Grade 4 [7] | Motesanib-related AE: Dehydration [7] | Motesanib-related AE: Pulmonary embolism [7] | Motesanib-related Hemorrhagic events, Grade 1 [7] | Motesanib-related Venous thromboembolic events (all grades) [7]
2 (33)^b n (%): Motesanib-related Pulmonary embolism, Grade 4 [6]
4 (50) n (%): Motesanib-related AE: Fatigue [3] | Motesanib-related AE: Nausea [3]
13 patients: patients who discontinued motesanib because of adverse events (all cohorts)
2 patients: serious motesanib-related deep vein thrombosis [2] | serious motesanib-related dehydration [2] | serious motesanib-related diarrhea [2] | grade 3/4 arterial thrombosis (treatment regimen as a whole)
3 patients: serious motesanib-related pulmonary embolism [2] | grade 3 deep vein thrombosis (treatment regimen as a whole)
5 (45) n (%): Motesanib-related AE: Hypertension [7]
6 (75) n (%): Patients with any motesanib-related AE [3]
15 patients: motesanib-related hypertension [1] | motesanib-related nausea [1]
3 (27)^c n (%): Motesanib-related Pulmonary embolism, Grade 4 [7]
2 (18)^c n (%): Motesanib-related Deep vein thrombosis, Grade 3 [7]
34%: patients with serious adverse events considered related to motesanib (all cohorts, fourteen patients)
not tolerable: tolerability of the combination treatment (motesanib, panitumumab, and gemcitabine/cisplatin at the doses and schedule administered)
2 (25) n (%): Any motesanib-related AE, Grade 3 [3] | Motesanib-related AE: Anorexia [3] | Motesanib-related AE: Vomiting [3] | Motesanib-related Venous thromboembolic events (all grades) [3]
3 (38) n (%): Motesanib-related AE: Hypertension [3]
7 (64) n (%): Motesanib-related AE: Diarrhea [7]
4 (36) n (%): Motesanib-related AE: Anorexia [7] | Motesanib-related AE: Nausea [7]
1 (50) n (%): Any motesanib-related AE, Grade 3 [4] | Any motesanib-related AE, Grade 4 [4] | Motesanib-related AE: Diarrhea [4] | Motesanib-related AE: Hypertension [4] | Motesanib-related Arterial thromboembolic events (all grades) [4] | Motesanib-related Arterial thrombosis, Grade 4 [4]
7%: patients with motesanib-related arterial thromboembolic events (all cohorts, three patients)
Two: deaths considered related to motesanib and panitumumab (pulmonary embolism, 50 mg QD, and sudden death, 125 mg QD, within 30 days of treatment)
8 patients: motesanib-related anorexia [1] | motesanib-related pulmonary embolism [1] | motesanib-related vomiting [1] | patients with serious motesanib-related adverse events (125-mg QD cohort) | grade 4 pulmonary embolism (treatment regimen as a whole)
29 patients: patients with motesanib-related adverse events (of the 33 patients who received motesanib (88%))
